Data: US20220016241A1, “COMPOSITIONS AND METHODS FOR REDUCING ANTIGEN-SPECIFIC IMMUNOGENICITY” (The Research Foundation for The State University of New York, priority 2013, published 2022)

Key:
OVA = target: T1, OVA (Gallus gallus, UniProt P01012); test: Binding of OPLS to OVA by fluorescence spectroscopy
T1 construct: purchased Sigma (St. Louis, Mo.)
Procedure: The binding of OPLS to several therapeutic proteins was evaluated using fluorescence spectroscopy (FIG. 2).

Humira = test: Binding of OPLS to Humira
Procedure: The binding of OPLS to several therapeutic proteins was evaluated using fluorescence spectroscopy (FIG. 2). The fluorescence emission reduced as the concentration of OPLS was increased. The fluorescence intensity changes were highest for FVIII compared to GAA and OVA. […] The high affinity binding for FVIII is consistent with the existence of a putative lipid binding domain.
As shown in FIG. 6(d), anti-Humira antibody titers were lower in mice that were co-administered OPLS (5 mg dose) and Humira® ([…]) via the s.c. route than in those administered Humira® alone ([…]) (also via the s.c. route) after 4 weekly injection followed by a 2 weeks washout period. Titer values were obtained by classical sandwitch ELISA were the plates was coated with Humira before incubation with dilutions with plasma samples, anti-Humira antibodies were detected with a rat anti-mouse-HRP conjugated antibodies. […] It is highly doubtful that the weak binding seen here is “shielding” an immunologic epitope.

GAA peptide = target: T2, GAA peptide (Homo sapiens, UniProt P10253); test: Binding of OPLS to GAA peptide by ultraviolet/visible spectroscopy
T2 construct: purchased American Peptide Company (Sunnyvale, Calif.); host or cells: chemical synthesis
Source text: Instead of using fluorescence to detect binding, ultraviolet/visible spectroscopy was used.

anti-FVIII titers = test: Effect of OPLS on in-vivo immunogenicity of FVIII after sc administration; set-up: species or system HA mice; details: days 1, 8, 10, 12
Procedure: Effect of OPLS on the immunogenicity of FVIII after SC administration in-vivo: 21 HA mice between 6 and 8 weeks of age were divided into 3 groups: group one received 1 ug FVIII SC in the abdominal region. Group two received 1 μg FVIII plus 0.4 mg OPLS SC in the abdominal region and group 3 received 1 μg FVIII plus 5 mg OPLS sc in the abdominal region. Incubation of FVIII with OPLS at 37° C. for 30 minutes ensures complexation, but for this example, OPLS and FVIII were combined at the desired concentrations at room temperature (22° C.) and immediately administered (within 1 minute). This treatment was given one day 1, 8, 10 and 12. Three days after the last injection the animals were sacrificed. Blood was centrifuged at 7500 rpm for 5 min at 4 degrees Celsius. Plasma was then removed and stored at −80 degrees Celsius until analysis.
Total titers were determined by classical standard ELISA. Anti-FVIII antibody (ESH8) was used as a control. Statistics was done on the arithmetic mean of the log transformed data, graphs are reported as geometric means. Non-responders were given the value of the plate specific factor for uniformity. […]
Statistics: Non-parametric one-way ANOVA with Tukey's post hoc analysis was used for the analysis of titer values where appropriate. Student t-test was used for comparing mean intensity of fluorescence (MIF) for flow cytomerty data. […]

[1] = PK of FVIII in the presence and absence of OPLS; format: in vivo, HA mice
anti-GAA antibody titers = test: Effect of OPLS on immunogenicity of GAA protein; format: in vivo, mice; details: 5 mg dose with 1 μg GAA, 4 weekly s.c., 2 week rest
Procedure: Materials and Methods: GAA Source: Full length recombinant rhGAA was produced in Human Kidney Embryo Cells for our use by Creative Biomart (Shirley, N.Y.); OPLS Source: Sigma-Aldrich (St. Louis, Mo.). n=8 animals/group were immunized with 4 weekly s.c. injections of 1 μg of GAA in 100 μl of either sterile TRIS for the free group or in 5 mg OPLS in sterile TRIS for the OPLS-GAA group. A group of 8 mice will receive the same dose of CBrhGAA in 5 mg O-phospho-D-serine (OPDS) solution as a negative control. After a 2 week rest period, a blood sample from the saphenous vein will be collected. Samples were stored at −80° C. until analysis. These samples were then analyzed for anti-GAA Ab titers. Anti-GAA antibody titers were measured as follows: ELISA plate (maxisorp, NUNC) was coated with 50 μl of 5 μg/ml of sterile rhGAA in sodium carbonate-bicarbonate buffer pH =9.6. The plate was incubated overnight at 4° C. The plate was washed six times with PBS containing 0.05% Tween 20 (PBS-T, 250 μl/well) using an automated plate washer. The plate was blocked with PBS containing 1% BSA (300 μl/well) as the block buffer for 2 hr at 37° C. […] The reaction was stopped with 2 N sulfuric acid and read immediately at 450 nm using a micro-plate reader. The titer values are quantitated using a statistical endpoint method as described by Frey et al. Control plasma samples were run on each plate. […]

[2] = Safety of repeated high doses of OPLS; format: in vivo, rodent and primate models; details: up to 950 mg
Procedure: Given that the methods disclosed herein appear to work best with doses of OPLS that equal or exceed 5 mg, it is important to understand the safety and toxicity of high doses of OPLS.

T1 sequence (P01012 whole entry): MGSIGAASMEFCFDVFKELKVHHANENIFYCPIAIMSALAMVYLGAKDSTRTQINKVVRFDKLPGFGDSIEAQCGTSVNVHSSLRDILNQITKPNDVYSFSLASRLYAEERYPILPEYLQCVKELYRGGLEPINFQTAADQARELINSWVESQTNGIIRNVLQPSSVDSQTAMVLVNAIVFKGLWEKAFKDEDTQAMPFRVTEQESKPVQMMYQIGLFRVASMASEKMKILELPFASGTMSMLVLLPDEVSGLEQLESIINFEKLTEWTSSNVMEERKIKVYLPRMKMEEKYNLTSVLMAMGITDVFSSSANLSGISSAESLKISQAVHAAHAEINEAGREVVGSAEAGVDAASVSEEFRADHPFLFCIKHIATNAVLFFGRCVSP

## N[C@@H](COP(=O)(O)O)C(=O)O [OPLS, O-Phospho-L-Serine]
OVA; fluorescence titration, FIG. 2, read-out: Dissociation constant (Kd) of OPLS binding to OVA
  Kd: 2570 µM
OVA; spectroscopic titration
  Binding affinity of OVA for OPLS: lowest affinity
Humira
  Binding between OPLS and Humira: weak binding
GAA peptide
  Binding of GAA peptide to OPLS: did not bind
anti-FVIII titers; 1 μg FVIII with high dose OPLS (5 mg/injection) sc, geometric mean±SD
  Total anti-FVIII titer: 5.34±5.8 arbitrary units
anti-FVIII titers; 1 μg FVIII with low dose OPLS (0.4 mg/injection) sc, not statistically significant vs FVIII alone
  Total anti-FVIII titer: 137±1.4 arbitrary titer units
[1]; iv, FIG. 4
  FVIII plasma exposure after intravenous co-administration: slight increase
[1]; sc co-administration vs biotherapeutic alone
  Bioavailability after subcutaneous co-administration: improves
[1]; sc co-administration vs biotherapeutic alone, FIGS. 5A and 5B
  Lymphatic uptake from the subcutaneous space: improves
anti-GAA antibody titers
  Anti-GAA antibody titers vs GAA alone: lower
[2]
  Tolerability of repeated, high doses: well tolerated
